# Measurements taken from PMC8845381 (BMC Microbiology, 2022).
# Several values for one entry are separate records, joined by “and”; a condition that tells them apart may be missing. Equal values may be shown once. Read-outs that look alike come from different tables or passages of the source. Marks after values point to notes of the source that are not given here.
# Experiments:
# human blood = type: cell-based; conditions: 30 min at 37 °C
# Experimental: In vitro hemolytic activity was done by spectrophotometric method. In this study, the fresh human blood samples obtained from returned unused blood bags in the blood bank (Iranian Blood Transfusion Organization) were used. […] The mixture was incubated for 30 min at 37 °C and then centrifuged at 1500 rpm for 10 min. The free hemoglobin in the supernatant was analyzed by UV–Vis spectrophotometer at 540 nm. The PBS and distilled water (DW) were used as minimal and maximal hemolytic controls.
# [1] = tested on: L. major amastigotes in J774.A1 macrophages; test: Parasite load in macrophage (anti-amastigote activity); type: cell-based, Leishmania major; conditions: for Number of amastigotes: mean per macrophage
# Experimental: For the assessment of the parasite load, 2 × 10^5 of J774.A1 macrophages cells were cultured in a 24-well microtiter plate containing a 13 mm-diameter coverslip per well, and supplemented RPMI medium supplemented with 10% FCS and 100 U/ml penicillin and 100 μg/mL streptomycin and incubated at 37 °C in CO2 5% for 24 h. Promastigotes of L. major at the stationary phase were seeded into each well (1:10) and incubated for 24 h and the non-internalized parasites were removed by aspirating the supernatant. […] The number of infected macrophages and the number of amastigotes per macrophage were determined by counting the number of parasites in 100 macrophages in a neubauer chamber.
# L929 cell line = test: Cytotoxicity assay (MTT); type: cell-based; conditions: for Cytotoxicity assay Percent (%): L929, 24 h
# Experimental: L929 cell line was seeded into 96-well microtiter plates (Nunc, Roskilde, Denmark) in DMEM (100 μL) supplemented with 10% FBS and 1% penicillin–streptomycin solution. Cells then were incubated at 37 °C in a humidity of 95% and 5% CO2 for 24 h. […] After 24 h of incubation time, 10 μL of MTT solution was added to each well. After 3 h of incubation at 37 °C, the supernatant was removed and 100 μL of DMSO was added. Finally, the absorbance at 570 nm was measured by a microtiter plate reader (BioTek ELX800, Winooski, VT, USA) and the viability was calculated by the below formula [21]: Viability%=ODTest/ODControl×100
# [2] = tested on: L. amazonensis promastigotes; set-up: method as in PMID 26517558; conditions: in vitro; cited from earlier work
# [3] = Characterization by dynamic light scattering (size, PDI, zeta potential); type: physicochemical; conditions: DLS
# Experimental: The homogenization followed by the probe ultra-sonication method was performed for preparing the nanoparticles. […] Then, the hot lipid phase was dispersed in the 1/3 aqueous solution containing 500 mg of hydrophilic surfactant (Tween 80), heated at the same temperature, homogenized by high-shear homogenizer at 13,000 rpm for 7 min (D-91126 Schwabach, Heidolph, Germany), and then sonicated by a probe sonicator (Bandelinsonopuls, 3100, Berlin, Germany) at power levels of 3.5 W for 5 min to form a coarse pre-emulsion. The mixture was then dispersed into 2/3 of an ice-cold surfactant solution preserved in an ice bath. The final mixture was sonicated again at power levels of 0.6 W for 10 min while dipped in the ice bath. This cooling phase encouraged the formation of lipid nanoparticles.
# L. amazonensis = conditions: in vitro; cited from earlier work
# [4] = tested on: nitric oxide (NO) production by infected murine peritoneal macrophages; test: Indirect measurement of nitric oxide production (Griess reaction); type: cell-based
# Experimental: NO levels were evaluated using Griess reaction and compared to the untreated macrophages. In a 96-well microtiter plate, 2 × 10^5 murine peritoneal macrophages were cultured at 37 °C in 5% CO2 for 4 h to allow cell adhesion. 100 µL of new medium containing promastigotes in stationary phase (10 promastigotes per macrophage) was added. […] After the incubation times, the level of NO was analyzed using cell culture supernatant by an ELISA plate reader at 550 nm.
# L. major = conditions: in vitro; cited from earlier work
# L. major promastigotes [5] = test: In vitro assay: live and dead promastigotes counted after eosin staining; type: cell-based, Leishmania major (Iranian strain MRHO/IR/75/ER); conditions: for effectiveness (mortality rate of promastigotes) compared with Amphotericin B: P < 0.05
# Experimental: L. major promastigotes, Iranian strain MRHO/IR/75/ER, were provided by the department of parasitology, Tehran University of Medical Sciences, Tehran, Iran and were cultivated in RPMI-1640 medium supplemented with 10% FBS and penicillin–streptomycin solution at 24 °C with frequent passages every three days.
# The experiments were done separately for 12, 24, 48, and 72 h in a 96-well microtiter plate. At first, 100 μL RPMI-1640 medium containing 10^5 promastigotes (at log phase) was added to each well. […] Amphotericin B (20 mg/mL) as a positive control was considered in three wells, in a concentration of 12 μM. In another row, 100 µL of medium containing parasites with phosphate buffered saline (PBS) without the drug was added as the negative controls. The plate was incubated at 24 °C for 12, 24, 48, and 72 h.
# Leishmania major = test: In vivo assay: lesion size in infected BALB/c mice, topical treatment; conditions: after 28 days
# Experimental: This study was performed in accordance with ARRIVE guidelines (https://arriveguidelines.org). Female BALB/c mice (6–7 weeks old) purchased from Razi Rad Industries were used for experimentation and kept in standard boxes under controlled light and temperature conditions. Overall, 1.6 × 10^6 promastigotes, in the stationary phase, were injected subcutaneously in the base of the tail of mice. The mice were divided into 10 groups and five mice were allocated in each group. […] After three weeks, treatment was started when local lesions were apparent. […] Topical treatment was used on each mouse every 28 continuous days. The diameter of lesions was measured weekly before and after treatment by dial micrometer (Starrett Dial indicator, model 25A, USA) and compared with that of untreated lesions. The ulcer size was determined according to the following formula (a: Length and b: width): Lesionsize=a+b/2
# Candida albicans = conditions: cited from earlier work
# [6] = tested on: L. major intracellular amastigotes; conditions: 10, 50, and 100 µg/mL; cited from earlier work
# L. major promastigotes [7] = test: Apoptosis assay (Annexin V-FITC/PI flow cytometry); type: cell-based; conditions: Leishmania major, 24 h, read-out: viability rates of cells (flow cytometry)
# Experimental: They were incubated at 24 °C for 24 h. Then cells were washed twice with PBS and 1 × 10^5 cells were re-suspended in 100 μL binding buffer and incubated with 5 μL of Annexin V-FITC and propidium iodide (PI) as a counterstain for 15 min at room temperature in darkness, according to the manufacturer's instructions (BD Biosciences, San Diego, CA, USA). Finally, the percent of apoptotic and necrotic cells was evaluated by flow cytometry (Becton Dickinson) and data were analyzed using Flowjo software (version 7).
# [8] = 20 µg/mL, 0 h (Before treatment)
# [9] = 50 µg/mL, 0 h (Before treatment)
# [10] = 100 µg/mL, 0 h (Before treatment)
# [11] = 200 µg/mL, 0 h (Before treatment)
# [12] = 400 µg/mL, 0 h (Before treatment)
smiles,measurement,setting,value
"C[C@@H]1[C@H](O)[C@@H](C)/C=C/C=C/C=C/C=C/C=C/C=C/C=C/[C@H](O[C@@H]2O[C@H](C)[C@@H](O)[C@H](N)[C@@H]2O)C[C@@H]2O[C@](O)(C[C@@H](O)C[C@@H](O)[C@H](O)CC[C@@H](O)C[C@@H](O)CC(=O)O[C@H]1C)C[C@H](O)[C@H]2C(=O)O [Amphotericin B, reference compound]",Hemolytic assay Percent (%),human blood; concentration not given,21.6% and 21.6 ± 5.3%
same,MQ infectivity (%),[1]; [8],73.4%
same,Number of amastigotes,[1]; [8],15.7
same,MQ infectivity (%),"[1]; 20 µg/mL, 24 h",34.5^* %
same,Number of amastigotes,"[1]; 20 µg/mL, 24 h",4.3^*
same,MQ infectivity (%),"[1]; 20 µg/mL, 48 h",42.7^* %
same,Number of amastigotes,"[1]; 20 µg/mL, 48 h",0.4^**
same,Cytotoxicity assay Percent (%),L929 cell line; concentration not given,19.5 ± 0.6%
Oc1cc(O)cc(/C=C/c2ccc(O)cc2O)c1 [oxyresveratrol],IC50,[2],65 µg/mL
"Oc1ccc(/C=C/c2cc(O)cc(O)c2)cc1 [Resveratrol, 3,5,4' -trihydroxy-trans-stilbene]",average size,[3],432.7 ± 26 nm
same,IC50,L. amazonensis,27 µM
same,NO production by macrophages compared with Amphotericin B,"[4]; resveratrol 50 and 100 µg/mL, RNE 50, 100, 200, and 400 µg/mL, P < 0.05",decreased the NO production even more than Amphotericin B
same,production of NO compared with the control group,"[4]; resveratrol ≥ 200 µg/mL, 24 h, control PBS 7.23 μM, DMSO 6.73 μM",decreased the production of NO
same,IC50,L. major,65.5 µM
same,promastigotes eliminated,"L. major promastigotes [5]; 100 µg/mL, 48 h, 'In this study' (sentence follows description of ref 17)",100%
same,IC50,"L. major promastigotes [5]; Leishmania major, promastigotes of L. major after 12 h",16.2 µg/mL
same,effectiveness (mortality rate of promastigotes) compared with Amphotericin B,"L. major promastigotes [5]; after 12 h, 50, 100, 200, and 400 µg/mL",significantly more effective than Amphotericin B
same,effectiveness (mortality rate of promastigotes) compared with Amphotericin B,"L. major promastigotes [5]; after 24 h, all concentrations",significantly more effective than Amphotericin B
same,anti-leishmanial activity compared with positive control (Amphotericin B),"L. major promastigotes [5]; after 48 h, resveratrol 50-400 µg/mL, RNE 100-400 µg/mL, not significant (P > 0.05)",better anti-leishmanial activity than positive control
same,Hemolytic assay Percent (%),human blood; 100 µg/mL,17.5 ± 2.4%
same,Hemolytic assay Percent (%),human blood; 200 µg/mL,19.6 ± 3.7%
same,Hemolytic assay Percent (%),human blood; 400 µg/mL (highest concentration),25.2 ± 5.3%
same,mean lesion size,"Leishmania major; 15 mg/kg BW, topical, PBS control 7.5 and 7.2 mm",0.0 mm
same,anti-leishmanial activity (lesion size) compared with Amphotericin B,"Leishmania major; all concentrations, not significant (P > 0.05)",better anti-leishmanial activity
same,IC50,Candida albicans,10 to 20 µg/mL
same,MQ infectivity (%),[1]; [9],76.4%
same,Number of amastigotes,[1]; [9],17.6
same,MQ infectivity (%),"[1]; 50 µg/mL, 24 h",68.4^* %
same,Number of amastigotes,"[1]; 50 µg/mL, 24 h",12.5
same,MQ infectivity (%),"[1]; 50 µg/mL, 48 h",55.3%
same,Number of amastigotes,"[1]; 50 µg/mL, 48 h",9.8^*
same,MQ infectivity (%),[1]; [10],81.0%
same,Number of amastigotes,[1]; [10],18.3
same,MQ infectivity (%),"[1]; 100 µg/mL, 24 h",56.2^* %
same,Number of amastigotes,"[1]; 100 µg/mL, 24 h",12.1
same,MQ infectivity (%),"[1]; 100 µg/mL, 48 h",41.9^* %
same,Number of amastigotes,"[1]; 100 µg/mL, 48 h",9.5^*
same,MQ infectivity (%),[1]; [11],78.3%
same,Number of amastigotes,[1]; [11],18.0
same,MQ infectivity (%),"[1]; 200 µg/mL, 24 h",42.6^* %
same,Number of amastigotes,"[1]; 200 µg/mL, 24 h",6.7^*
same,MQ infectivity (%),"[1]; 200 µg/mL, 48 h",35.5^* %
same,Number of amastigotes,"[1]; 200 µg/mL, 48 h",2.4^*
same,MQ infectivity (%),[1]; [12],79.6%
same,Number of amastigotes,[1]; [12],16.2
same,MQ infectivity (%),"[1]; 400 µg/mL, 24 h",31.4^* %
same,Number of amastigotes,"[1]; 400 µg/mL, 24 h",3.3^*
same,MQ infectivity (%),"[1]; 400 µg/mL, 48 h",25.8^* %
same,Number of amastigotes,"[1]; 400 µg/mL, 48 h",0.5^**
same,effect on intracellular amastigote,[6],resistant
same,cytotoxicity against the L929 cell line (in words),L929 cell line,no cytotoxicity
same,Cytotoxicity assay Percent (%),L929 cell line; 100 µg/mL,8.4 ± 1.6%
same,Cytotoxicity assay Percent (%),L929 cell line; 200 µg/mL,14.8 ± 3.0%
same,Cytotoxicity assay Percent (%),L929 cell line; 400 µg/mL,18.7 ± 4.6%
same,viability at 200 µg/mL,L. major promastigotes [7]; 200 µg/mL,87.9%
same,viability at 400 µg/mL,L. major promastigotes [7]; 400 µg/mL,71.4%
